Measured values taken from patent US10759781B2, “Substituted guanidine derivatives” (UBE INDUSTRIES, LTD., priority 2015, dated 2020).

How the values were obtained:
[1] = test system: Human normal hepatic sinusoid-like microvascular endothelial cells; type: cell-based; details: 2 days, 300 nM
Procedure: The Cytotoxicity Inhibition Test in Human Normal Hepatic Sinusoid-Like Microvascular Endothelial Cells
(§1) Human normal hepatic sinusoid-like microvascular endothelial cells were plated at 6000 cells/well in a collagen-coated 96-well culture plate. After one day of culture, the medium at each well was completely removed by aspiration and replaced with 50 μL of the compound solution diluted with the basal medium. The basal medium containing 0.1% DMSO was added to control wells. Following, the plate was incubated in CO2 incubator for 30 minutes. Fifty microliter of 2 mM methylamine diluted with the basal medium was added (final concentration 1 mM) to each negative control well (0% inhibition) as well as the compound-containing well, and 50 μL of the basal medium was added to each positive control well (100% inhibition). The plate was incubated in CO2 incubator for 2 days. Ten microliter of CCK-8 was added to each well and the mixtures were incubated in a plate incubator at 37° C. for approximately 2 hours after stirring with a plate shaker. The absorbance of the mixtures at 450 nm was measured with a multiplate reader. The cytotoxicity inhibition ratio of the compound was calculated from the following equation. Inhibition ratio={[Average absorbance of the compound-containing wells]−[Average absorbance of negative control wells]}/{[Average absorbance of positive control wells]−[Average absorbance of negative control wells]}×100

[2] = test system: Human normal glomerular microvascular endothelial cells; type: cell-based; details: 2 days, 100 nM
Procedure: The Cytotoxicity Inhibition Test in Human Normal Glomerular Microvascular Endothelial Cells
as §1, with “glomerular” for “hepatic sinusoid-like”

[3] = molecular target: T1, Rat Plasma VAP-1 (Rattus norvegicus, UniProt O08590); test: (Ex vivo) rat plasma VAP-1 inhibition test after oral administration of the compound; type: in vivo; details: 3 hours after oral administration, SD male rats, read-out: inhibition ratio (plasma VAP-1, ex vivo)
T1 construct: from tissue; host or cells: plasma of SD male rats (7-12 weeks old) after oral dosing
T1 sequence (O08590 28-763 limits assumed): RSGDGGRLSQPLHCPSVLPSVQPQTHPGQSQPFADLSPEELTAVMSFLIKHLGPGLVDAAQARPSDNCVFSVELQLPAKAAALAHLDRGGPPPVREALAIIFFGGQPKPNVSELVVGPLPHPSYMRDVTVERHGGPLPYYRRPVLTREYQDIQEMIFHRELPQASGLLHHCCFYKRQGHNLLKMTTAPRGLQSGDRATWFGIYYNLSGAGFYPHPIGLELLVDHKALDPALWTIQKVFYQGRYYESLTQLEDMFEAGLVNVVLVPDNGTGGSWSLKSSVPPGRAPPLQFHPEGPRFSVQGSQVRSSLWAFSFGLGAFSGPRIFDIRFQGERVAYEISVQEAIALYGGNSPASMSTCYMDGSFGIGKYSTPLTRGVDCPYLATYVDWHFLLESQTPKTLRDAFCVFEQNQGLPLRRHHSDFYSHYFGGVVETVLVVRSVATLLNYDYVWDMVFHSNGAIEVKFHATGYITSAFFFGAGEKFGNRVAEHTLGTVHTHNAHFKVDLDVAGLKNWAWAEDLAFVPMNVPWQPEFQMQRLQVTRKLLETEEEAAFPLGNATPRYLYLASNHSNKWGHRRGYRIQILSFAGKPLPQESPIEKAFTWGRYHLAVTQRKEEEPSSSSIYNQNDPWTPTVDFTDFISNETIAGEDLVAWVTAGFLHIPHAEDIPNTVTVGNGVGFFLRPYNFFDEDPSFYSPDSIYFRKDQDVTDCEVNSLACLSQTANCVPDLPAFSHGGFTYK
Summary of the method: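 Male SD rats, 7–12 weeks, non-fasted, dosed orally at 0.3–10 mg/kg; jugular blood taken predose and 3, 8 and 24 h after dosing. Plasma incubated with 2.5 μM 14C-benzylamine for 3 h at 37 °C; extracted product counted by scintillation. Inhibition expressed relative to each animal's predose plasma activity.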

[4] = molecular target: T2, Human VAP-1 enzyme (Homo sapiens, UniProt Q16853); test: Human VAP-1 enzyme inhibition test; type: biochemical; details: 1 h; compound 30 nM; 14C-benzylamine 100 μM; read-out: inhibition ratio (human VAP-1 enzyme)
T2 construct: purchased R&D Systems, Inc
T2 sequence (Q16853 1-763): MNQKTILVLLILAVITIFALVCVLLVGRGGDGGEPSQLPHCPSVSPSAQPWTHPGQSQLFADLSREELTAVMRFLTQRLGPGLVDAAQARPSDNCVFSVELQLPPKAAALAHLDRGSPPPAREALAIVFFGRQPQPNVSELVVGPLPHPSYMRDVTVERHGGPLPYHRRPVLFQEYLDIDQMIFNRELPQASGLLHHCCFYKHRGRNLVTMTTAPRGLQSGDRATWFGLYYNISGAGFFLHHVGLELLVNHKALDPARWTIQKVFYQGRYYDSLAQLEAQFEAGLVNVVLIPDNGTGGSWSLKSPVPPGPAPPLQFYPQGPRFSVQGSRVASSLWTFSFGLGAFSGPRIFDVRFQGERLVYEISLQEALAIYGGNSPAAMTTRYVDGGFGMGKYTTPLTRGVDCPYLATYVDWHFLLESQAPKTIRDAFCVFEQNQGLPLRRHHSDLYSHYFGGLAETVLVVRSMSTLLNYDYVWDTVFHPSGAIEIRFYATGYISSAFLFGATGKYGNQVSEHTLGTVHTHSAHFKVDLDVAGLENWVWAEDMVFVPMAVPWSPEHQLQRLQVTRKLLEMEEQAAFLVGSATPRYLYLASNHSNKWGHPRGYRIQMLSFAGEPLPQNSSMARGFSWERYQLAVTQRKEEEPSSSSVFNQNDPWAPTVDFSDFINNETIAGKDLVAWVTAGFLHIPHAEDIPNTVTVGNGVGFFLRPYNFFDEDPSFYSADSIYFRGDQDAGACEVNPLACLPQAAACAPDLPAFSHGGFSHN
Summary of the method: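 Activity measured as radioactive oxidation product of 14C-benzylamine (100 μM final), extracted with toluene/ethyl acetate after citric acid stop and scintillation-counted. Enzyme (recombinant human VAP-1) first exposed to compound 20 min at room temperature, reaction then 1 h at 37 °C. Percent inhibition versus DMSO control.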

CCON=C1CN(c2ncc(-c3cccc(COC(=O)NC(=N)N)c3F)cn2)C1 [Example 2, 3-{2-[3-(Ethoxyimino)azetidin-1-yl]pyrimidin-5-yl}-2-fluorobenzyl carbamimidoylcarbamate]
≥ 50%: cytotoxicity inhibition ratio [1] | cytotoxicity inhibition ratio [2] | inhibition in vivo at 0.3 mg/kg [3]

[2H]C([2H])([2H])ON=C1CN(c2ncc(-c3cccc(COC(=O)NC(=N)N)c3F)cn2)C1 [Example 3, 2-Fluoro-3-(2-{3-[(methoxy-d3)imino]azetidin-1-yl}pyrimidin-5-yl)benzyl carbamimidoylcarbamate]
≥ 50%: cytotoxicity inhibition ratio [1] | inhibition at 0.03 µM [4] | cytotoxicity inhibition ratio [2] | inhibition in vivo at 0.3 mg/kg [3]

N=C(N)NC(=O)OCc1cccc(-c2cnc(N3CC(=NOCCF)C3)nc2)c1F [Example 5, 2-Fluoro-3-(2-{3-[(2-fluoroethoxy)imino]azetidin-1-yl}pyrimidin-5-yl)benzyl carbamimidoylcarbamate]
≥ 50%: cytotoxicity inhibition ratio [1] | cytotoxicity inhibition ratio [2] | inhibition in vivo at 0.3 mg/kg [3]

CC(=O)OC1CC(ON=C2CN(c3ncc(-c4cccc(COC(=O)NC(=N)N)c4F)cn3)C2)C1 (stereo not drawn) [Example 133, 3-[({1-[5-(3-{[(Carbamimidoylcarbamoyl)oxy]methyl}-2-fluorophenyl)pyrimidin-2-yl]azetidin-3-ylidene}amino)oxy]cyclobutyl acetate]
≥ 50%: cytotoxicity inhibition ratio [1] | inhibition at 0.03 µM [4] | cytotoxicity inhibition ratio [2] | inhibition in vivo at 0.3 mg/kg [3]

N=C(N)NC(=O)OCc1cccc(-c2cnc(N3CC(=NOC4CC(O)C4)C3)nc2)c1F (stereo not drawn) [Example 134, 2-Fluoro-3-(2-{3-[(3-hydroxycyclobutoxy)imino]azetidin-1-yl}pyrimidin-5-yl)benzyl carbamimidoylcarbamate]
≥ 50%: cytotoxicity inhibition ratio [1] | inhibition at 0.03 µM [4] | cytotoxicity inhibition ratio [2] | inhibition in vivo at 0.3 mg/kg [3]

CS(=O)(=O)N1CC(ON=C2CN(c3ncc(-c4cccc(COC(=O)NC(=N)N)c4F)cn3)C2)C1 [Example 141, 2-Fluoro-3-{2-[3-({[1-(methylsulfonyl)azetidin-3-yl]oxy}imino)azetidin-1-yl]pyrimidin-5-yl}benzyl carbamimidoylcarbamate]
≥ 50%: cytotoxicity inhibition ratio [1] | inhibition at 0.03 µM [4] | cytotoxicity inhibition ratio [2] | inhibition in vivo at 0.3 mg/kg [3]

N=C(N)NC(=O)OCc1cccc(-c2cnc(N3CC(=NOC4COC4)C3)nc2)c1F [Example 144, 2-Fluoro-3-(2-{3-[(oxetan-3-yloxy)imino]azetidin-1-yl}pyrimidin-5-yl)benzyl carbamimidoylcarbamate]
≥ 50%: cytotoxicity inhibition ratio [1] | inhibition at 0.03 µM [4] | cytotoxicity inhibition ratio [2] | inhibition in vivo at 0.3 mg/kg [3]

N=C(N)NC(=O)OCc1cccc(-c2cnc(N3CCC(=NOCc4ccncc4)CC3)nc2)c1F [Example 176, 2-Fluoro-3-(2-{4-[(pyridin-4-ylmethoxy)imino]piperidin-1-yl}pyrimidin-5-yl)benzyl carbamimidoylcarbamate]
≥ 50%: inhibition at 0.03 µM [4] | inhibition in vivo at 0.3 mg/kg [3]

N=C(N)NC(=O)OCc1cccc(-c2cnc(N3CCC(=NOCCN4C(=O)CCC4=O)CC3)nc2)c1F [Example 177, 3-[2-(4-{[2-(2,5-Dioxopyrrolidin-1-yl)ethoxy]imino}piperidin-1-yl)pyrimidin-5-yl]-2-fluorobenzyl carbamimidoylcarbamate]
≥ 50%: inhibition at 0.03 µM [4] | inhibition in vivo at 0.3 mg/kg [3]

N=C(N)NC(=O)OCc1cccc(-c2cnc(N3CCC(=NOCCN4CCCC4=O)CC3)nc2)c1F [Example 178, 2-Fluoro-3-[2-(4-{[2-(2-oxopyrrolidin-1-yl)ethoxy]imino}piperidin-1-yl)pyrimidin-5-yl]benzyl carbamimidoylcarbamate]
≥ 50%: inhibition at 0.03 µM [4] | inhibition in vivo at 0.3 mg/kg [3]

N=C(N)NC(=O)OCc1cccc(-c2cnc(N3CCC(=NOc4cncnc4)CC3)nc2)c1F [Example 182, 2-Fluoro-3-(2-{4-[(pyrimidin-5-yloxy)imino]piperidin-1-yl}pyrimidin-5-yl)benzyl carbamimidoylcarbamate]
≥ 50%: inhibition at 0.03 µM [4] | inhibition in vivo at 0.3 mg/kg [3]

N=C(N)NC(=O)OCc1cccc(-c2cnc(N3CCC(=NOc4ncccn4)CC3)nc2)c1F [Example 183, 2-Fluoro-3-(2-{4-[(pyrimidin-2-yloxy)imino]piperidin-1-yl}pyrimidin-5-yl)benzyl carbamimidoylcarbamate]
≥ 50%: inhibition at 0.03 µM [4] | inhibition in vivo at 0.3 mg/kg [3]
